Experimental findings from patent publication US20250387419A1, “PARP INHIBITOR-RESISTANT PATIENT TREATED WITH TH-302” (ASCENTAWITS PHARMACEUTICALS, LTD., priority 2021, published 2025) are described below.

“And” between values parts separate entries of the source, which are not always exact repeats. Identical values can stand only once.

The subject of series [1] is human pancreatic cancer Capan-1 subcutaneous xenograft model. Put plainly: In-depth efficacy in olaparib-resistant pancreatic cancer Capan-1 CDX model (3.2). The settings on record: Group 2: 100 mg/kg p.o. QD×30. It counts as in vivo, mouse. The protocol: Protocol: Nude BALB/c mice were subcutaneously inoculated with human pancreatic cancer Capan-1 cells, establishing a human pancreatic cancer subcutaneous xenograft model. The mice were divided into 7 groups, 6 in each group: 100 mg/kg of the test drug olaparib as a monotherapy (Group 2); 50 mg/kg of TH-302 as a monotherapy (Group 3, QD); 100 mg/kg of TH-302 as a monotherapy (Group 4); 50 mg/kg of TH-302 as a monotherapy (Group 5, QW); 25 mg/kg of TH-302 as a monotherapy (Group 6); 25 mg/kg TH-302 in combination therapy with 100 mg/kg olaparib (Group 7); and 10% anhydrous ethanol+10% polyoxyethylene (35) castor oil+80% glucose injection solution D5W (pH 7.4) as a vehicle control (Group 1). The vehicle control group and the TH-302 test groups were all administered through tail vein injection. The 50 mg/kg TH-302 monotherapy group (Group 3, QD) was administered once daily for 3 consecutive days. After rest for 4 days and two weeks, the mice were again administered daily for another 3 consecutive days. TH-302 in all the 100 mg/kg (Group 4, QW), 50 mg/kg (Group 5, QW) and 25 mg/kg (Group 6, QW) TH-302 monotherapy groups and 25 mg/kg TH-302+100 mg/kg olaparib combination therapy group (Group 7) was administered once weekly for a total of three weeks. The test drug olaparib in all the groups was orally and intragastrically administered once daily for totally 30 days. Routes of administration, doses and regimens for the human pancreatic cancer Capan-1 animal model are specifically summarized in Table 12.
Tumor growth of the treatment and control groups on different days in the experiment were recorded and shown in Table 13, and corresponding tumor volume growth curves of the mice in respective groups are shown in FIG. 7. Efficacy evaluation was conducted based on relative tumor proliferation rates and relative tumor growth inhibition rates, and the results of efficacy analysis are summarized in Table 14. Body weight changes of the treatment and control groups after administration were recorded to investigate safety of the groups in the human pancreatic cancer Capan-1 subcutaneous model. Body weight change rates of the mice on Day 43 are shown in Table 15, and curves showing body weights of the treatment groups over time are plotted in FIG. 8.
A relative tumor proliferation rate, denoted as T/C %, is calculated as a relative tumor volume or a tumor weight of a treatment group as a percentage of that of the control group at a certain point of time according to:
T/C %=TRTV/CRTV×100% (where TRTV denotes average RTV of the treatment group; CRTV represents average RTV of the vehicle control group; and RTV=Vt/V0, where V0 is a tumor volume of an animal at the time of randomization, and Vt is a tumor volume of the animal after treatment); or
T/C %=TTW/CTW×100% (where TTW is an average tumor weight of the treatment group at the end of the experiment, and CTW is an average tumor weight of the vehicle control group at the end of the experiment).
A relative tumor growth inhibition rate, denoted as TGI (%), is calculated according to: TGI %=(1−T/C)×100% (where T and C are relative tumor volumes (RTV) or tumor weights (TW) of a treatment group and the control group, respectively, at a particular point of time).

Series [2] is described as follows: Safety (body weight) in LU6429 PDX model. The settings on record: Group 2: 50 mg/kg p.o. QD×28. It counts as in vivo, mouse. As for the experimental part:
Protocol: Nude female Balb/c mice were subcutaneously inoculated with HuPrime® lung cancer LU6429 tumor tissue, establishing a human lung cancer subcutaneous xenograft tumor model. The mice were divided into 6 groups, 6 in each group: 50 mg/kg of the test drug olaparib as a monotherapy (Group 02); 80 mg/kg TH-302 as a monotherapy (Group 03); 40 mg/kg TH-302 as a monotherapy (Group 04); 20 mg/kg TH-302 as a monotherapy (Group 05); 40 mg/kg TH-302 in combination therapy with 50 mg/kg olaparib (Group 06); and a glucose injection solution as a vehicle control (Group 01). The vehicle control group and the TH-302 treatment groups were all administered through tail vein, once weekly for a total of 3 weeks. Olaparib was intragastrically administered once daily for totally 28 days. Routes of administration, doses and regimens for the HuPrime® lung cancer LU6429 animal model are specifically summarized in Table 16.
Tumor growth of the treatment and control groups on different days in the experiment were recorded and shown in Table 17, and corresponding tumor volume growth curves of the mice in respective groups are shown in FIG. 9. Efficacy evaluation was carried out based on relative tumor proliferation rates and relative tumor growth inhibition rates, and the results of efficacy analysis are summarized in Table 18. Body weight changes of the treatment and control groups after administration were recorded to investigate safety of the groups in the HuPrime® lung cancer LU6429 subcutaneous model. Body weight change rates of the mice on Day 25 are shown in Table 19, and curves showing body weights of the treatment groups over time are plotted in FIG. 10.

In the case of `O=C(c1cc(Cc2n[nH]c(=O)c3ccccc23)ccc1F)N1CCN(C(=O)C2CC2)CC1` [olaparib], the Tumor volume in series [1] (Day 6) came to 146.72 mm^3; in series [1] (Day 9), 223.17 mm^3; in series [1] (Day 13) it was 263.96 mm^3; in series [1] (Day 16), 314.03 mm^3; in series [1] (Day 20), 373.87 mm^3; in series [1] (Day 23), 419.26 mm^3. Besides, the Tumor volume was 518.48 mm^3 in series [1] (Day 27); 550.33 mm^3 in series [1] (Day 30); 604.32 mm^3 in series [1] (Day 34); 725.18 mm^3 in series [1] (Day 37); 767.49 mm^3 in series [1] (Day 41); 846.86 mm^3 and 846.86 ± 128.85 mm^3 in series [1] (Day 43, 100 mg/kg). Moreover, the “Relative Tumor Volume (x ± S)” value in series [1] (Day 43) came out at 5.72 ± 0.54. Besides, the “T/C (%)” value in series [1] (Day 43) is reported as 62.57%. In series [1] (Day 43), the “TGI (%)” value turned out to be 37.43%. In addition, the “CR Rate” value in series [1] (Day 43, complete response, animals/group) is 0/6. Also, the “Average Body Weight g (x ± S)” value in series [2] (Day 0) came out at 20.8 ± 0.2 g; in series [2] (Day 25), 24.0 ± 0.4 g. Moreover, the “Body Weight Change Rate (%)” value in series [2] (Day 25) is 15.20% ± 2.31%.
